Results reported in US20230293517A1, “ANTAGONIST COMPOUNDS” (AdoRx Therapeutics Limited, priority 2020, published 2023).
Read-outs that look alike come from different tables or passages of the source.

Columns and labels:
[1] = molecular target: human Adenosine A2a receptor (Homo sapiens (Human), UniProt P29274); experiment: Adenosine receptor TR-FRET binding assay (A2a); conditions: inhibition of binding of 100 nM CA200645, CHO cell membranes
Outline: (§1)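 Ki values come from Cheng–Prusoff conversion of IC50s for displacement of fluorescent antagonist CA200645 from terbium-labelled human adenosine receptors in CHO membranes. Tracer was 30 nM at A2b and 100 nM at the other three subtypes; incubation lasted 2 h at room temperature.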

[2] = molecular target: human Adenosine A3 receptor (Homo sapiens (Human), UniProt P0DMS8); experiment: Adenosine receptor TR-FRET binding assay (A3); conditions: inhibition of binding of 100 nM CA200645, CHO cell membranes
Outline: as §1

[3] = tested on: CD8+T cells in human whole blood; experiment: Measurement of pCREB in CD8+T cells in human whole blood; format: cell-based; conditions: 3 μM NECA, rolipram
Outline: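 Heparinised human whole blood pre-incubated 20 min at 37 °C with serially diluted A2a antagonists plus rolipram, then stimulated 60 min with 3 μM NECA (final). After fixation and red-cell lysis, white cells were permeabilized and stained for phospho-CREB and CD8; pCREB in CD8+ T cells measured by flow cytometry.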

[4] = molecular target: human Adenosine A2b receptor (Homo sapiens (Human), UniProt P29275); experiment: Adenosine receptor TR-FRET binding assay (A2b)
Outline: as §1

[5] = tested on: immature monocyte-derived dendritic cells (MoDC); experiment: MoDC pCREB assay; format: cell-based, human; conditions: pCREB in immature MoDC, 1 μM NECA, rolipram
Method: Monocytes are isolated from human whole blood using CD14 microbeads (Miltenyi Biotec 130-050-201) and differentiated to immature monocyte-derived dendritic cells (MoDC) by culture for 5 days in Mo-DC Differentiation Medium (Miltenyi Biotec 130-094-812). MoDCs are seeded into fresh medium into U bottomed 96 well culture plates and pre-incubated at 37° C. with serial dilutions of A2A/B antagonists for 15 min. At the same time the cells are co-incubated with the phosphodiesterase inhibitor rolipram (final concentration of 20 µM) to amplify the subsequent pCREB response. Adenosine receptor agonist NECA is then added at 1 μM final concentration, leading to an increase in CREB phosphorylation. Following a 45 min incubation at 37° C., the cells are fixed, permeabilized and stained with directly conjugated fluorescent antibodies to phospho-CREB (Alexa Fluor 488), CD209 (PerCP-Cy5.5) and CD86 (APC). Samples are analysed by FACS to measure fluorescence in corresponding channels, and also forward and Side scatter. The population of CD209+/CD86− low cells corresponding to immature dendritic cells is gated for analysis of pCREB levels.
Approximately 5% of the analysed cells are positive for detection of pCREB in the absence of agonist stimulation, representing the background signalling of all pathways upstream of CREB. Following NECA stimulation this is increased to ˜80% pCREB+ve, and this increase is essentially fully reversible by A2B or dual A2A/B antagonists.
IC50 is represented as the point of inflection of a sigmoidal curve

[6] = molecular target: human Adenosine A1 receptor (Homo sapiens (Human), UniProt P30542); experiment: Adenosine receptor TR-FRET binding assay (A1); conditions: inhibition of binding of 100 nM CA200645, CHO cell membranes
Outline: as §1

[7] = tested on: human PBMCs; experiment: CD3/CD28 stimulated IL-2 release NECA reversal assay in human PBMCs; format: cell-based; conditions: PBMC, 1 uM NECA, 24 hours, IL-2 in culture supernatant
Outline: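 PBMCs from citrated healthy-donor blood plated at 50,000 cells/well on 1 ug/ml CD3 antibody with 1 ug/ml CD28 antibody, 1 uM NECA and 0.003-10 μM antagonist (final), 24 h at 37° C. Supernatant IL-2 measured by MSD immunoassay; % inhibition set against no-NECA control wells as 100%.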

[8] = TR-FRET, inhibition of binding of 30 nM CA200645, CHO cell membranes

human Adenosine A2a receptor, sequence (P29274 whole entry): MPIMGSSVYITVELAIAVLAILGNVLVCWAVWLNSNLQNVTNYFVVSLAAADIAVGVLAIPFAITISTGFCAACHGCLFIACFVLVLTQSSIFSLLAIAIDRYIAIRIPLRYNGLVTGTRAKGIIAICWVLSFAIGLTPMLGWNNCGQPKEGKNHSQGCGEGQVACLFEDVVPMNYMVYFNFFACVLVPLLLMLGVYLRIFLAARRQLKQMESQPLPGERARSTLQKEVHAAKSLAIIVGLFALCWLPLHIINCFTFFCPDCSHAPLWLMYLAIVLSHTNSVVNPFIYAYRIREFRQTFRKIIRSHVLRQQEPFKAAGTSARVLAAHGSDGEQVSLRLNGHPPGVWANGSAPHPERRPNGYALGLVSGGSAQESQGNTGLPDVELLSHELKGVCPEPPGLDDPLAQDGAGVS
human Adenosine A2b receptor, sequence (P29275 whole entry): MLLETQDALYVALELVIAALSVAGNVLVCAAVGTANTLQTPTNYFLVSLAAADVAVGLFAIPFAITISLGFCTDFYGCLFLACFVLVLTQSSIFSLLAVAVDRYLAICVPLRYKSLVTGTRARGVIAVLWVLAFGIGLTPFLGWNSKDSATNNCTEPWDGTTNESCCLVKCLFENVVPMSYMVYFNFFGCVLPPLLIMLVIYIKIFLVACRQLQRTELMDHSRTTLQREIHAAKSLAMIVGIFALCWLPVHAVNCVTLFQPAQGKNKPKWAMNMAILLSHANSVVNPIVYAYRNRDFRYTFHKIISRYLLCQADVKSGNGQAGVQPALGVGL
human Adenosine A3 receptor, sequence (P0DMS8 whole entry): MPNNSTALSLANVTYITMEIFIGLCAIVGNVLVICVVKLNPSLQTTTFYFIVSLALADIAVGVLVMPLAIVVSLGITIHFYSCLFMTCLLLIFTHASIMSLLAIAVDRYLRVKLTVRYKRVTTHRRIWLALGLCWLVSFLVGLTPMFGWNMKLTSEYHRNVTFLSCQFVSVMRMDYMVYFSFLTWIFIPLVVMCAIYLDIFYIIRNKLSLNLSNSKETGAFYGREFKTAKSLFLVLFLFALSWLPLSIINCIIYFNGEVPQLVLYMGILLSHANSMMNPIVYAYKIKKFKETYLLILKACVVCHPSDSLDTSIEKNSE
human Adenosine A1 receptor, sequence (P30542 whole entry): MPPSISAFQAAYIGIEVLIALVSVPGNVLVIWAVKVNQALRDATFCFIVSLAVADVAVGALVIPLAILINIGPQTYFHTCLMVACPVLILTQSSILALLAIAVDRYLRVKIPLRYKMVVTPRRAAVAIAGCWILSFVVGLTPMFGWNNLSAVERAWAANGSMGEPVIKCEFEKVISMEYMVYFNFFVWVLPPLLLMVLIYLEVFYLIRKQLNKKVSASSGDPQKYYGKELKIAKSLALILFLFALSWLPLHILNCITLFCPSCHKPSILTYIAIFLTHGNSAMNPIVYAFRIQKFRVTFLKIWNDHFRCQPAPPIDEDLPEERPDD

Compound	Ki [1] [nM]	Ki [2] [nM]	IC50 [3] [nM]	Ki [4] [nM]	IC50 ([5]; Homo sapiens, Dendritic cell) [nM]	Ki [4, 8] [nM]	Ki [6] [nM]	IC50 [5] [nM]	IC50 [7] [nM]
Cc1cc(-c2sc(NC(=O)N3C[C@@H]4OCCN(C)[C@@H]4C3)nc2-c2cccc(C#N)c2)cc(C)n1 (racemic) [Example 6.98, rac-(4aR,7aS)-N-[4-(3-Cyanophenyl)-5-(2,6-dimethyl-4-pyridyl)thiazol-2-yl]-4-methyl-2,3,4a,5,7,7a-hexahydropyrrolo[3,4-b][1,4]oxazine-6-carboxamide]	0.91	819	50	7	72				
Cc1cc(-c2sc(NC(=O)N3CC4(COC4)C3)nc2-c2cccc(C#N)c2)cc(C(C)O)n1 (racemic) [Example 12.3, N-[4-(3-Cyanophenyl)-5-[2-(1-hydroxyethyl)-6-methyl-4-pyridyl]thiazol-2-yl]-2-oxa-6-azaspiro[3.3]heptane-6-carboxamide]	0.44	1810	20		31	5	27		
Cc1cc(-c2sc(NC(=O)N3CCN(C)CC3)nc2-c2cccc(C#N)c2)cc(Cl)n1 [Example 3.6]	0.64	481	990		51	1.5	88		7.5
Cc1cc(-c2sc(NC(=O)N3CCC(C)(C#N)CC3)nc2-c2cccc(C#N)c2)cc(Cl)n1 [Example 3.8]	0.09	538	750		11	0.9	116		1
Cc1cc(-c2sc(NC(=O)N3CCC4(CC3)CNC(=O)O4)nc2-c2cccc(C#N)c2)cc(C)n1 [Example 6.56, N-[4-(3-Cyanophenyl)-5-(2,6-dimethyl-4-pyridyl)thiazol-2-yl]-2-oxo-1-oxa-3,8-diazaspiro[4.5]decane-8-carboxamide]			70		7				3.5
Cc1cc(-c2sc(NC(=O)N3CC(C)(C#N)C3)nc2-c2cccc(C#N)c2)c(F)c(C)n1 [Example 6.68, 3-Cyano-N-[4-(3-cyanophenyl)-5-(3-fluoro-2,6-dimethyl-4-pyridyl)thiazol-2-yl]-3-methyl-azetidine-1-carboxamide]			50		3				3.1
Cc1cc(-c2sc(NC(=O)N3CC4(COC4)C3)nc2-c2cccc(C#N)c2C)cc(C)n1 [Example 6.79, N-[4-(3-Cyano-2-methyl-phenyl)-5-(2,6-dimethyl-4-pyridyl)thiazol-2-yl]-2-oxa-6-azaspiro[3.3]heptane-6-carboxamide]			350		83				14.5
Cc1cc(-c2sc(NC(=O)N3CCC4(CNCCO4)C3)nc2-c2cccc(C#N)c2)cc(C)n1 (stereo not shown) [Example 13.12, N-[4-(3-Cyanophenyl)-5-(2,6-dimethyl-4-pyridyl)thiazol-2-yl]-6-oxa-2,9-diazaspiro[4.5]decane-2-carboxamide]	0.84	426	70		73	4.6	41		
CC(C)(O)c1cc(-c2sc(NC(=O)N3CC4(COC4)C3)nc2-c2cccc(C#N)c2)cc(Cl)n1 [Example 23, N-[5-[2-Chloro-6-(1-hydroxy-1-methyl-ethyl)-4-pyridyl]-4-(3-cyanophenyl)thiazol-2-yl]-2-oxa-6-azaspiro[3.3]heptane-6-carboxamide]	0.16	1840	20		182	5.7	9		
Cc1cc(-c2sc(NC(=O)N3CC[C@@](C)(C#N)C3)nc2-c2cccc(C#N)c2)cc(C)n1 [Example 27a, (3R)-3-Cyano-N-[4-(3-cyanophenyl)-5-(2,6-dimethyl-4-pyridyl)thiazol-2-yl]-3-methyl-pyrrolidine-1-carboxamide]	0.54	313	80		10	1.2	37		

More lines, main results first:

Ki [1] [nM]	Ki [2] [nM]	IC50 [3] [nM]	Ki [4] [nM]	IC50 ([5]; Homo sapiens, Dendritic cell) [nM]	Ki [4, 8] [nM]	Ki [6] [nM]	IC50 [5] [nM]	Compound	IC50 [7] [nM]
0.18	1090	10			2.6	23	16	Cc1cc(-c2sc(NC(=O)N3CC4(COC4)C3)nc2-c2cccc(C#N)c2)cc([C@@H](C)O)n1 (single isomer, unassigned) [Example 12.3a, N-[4-(3-Cyanophenyl)-5-[2-[(1R)-1-hydroxyethyl]-6-methyl-4-pyridyl]thiazol-2-yl]-2-oxa-6-azaspiro[3.3]heptane-6-carboxamide or N-[4-(3-cyanophenyl)-5-[2-[(1S)-1-hydroxyethyl]-6-methyl-4-pyridyl]thiazol-2-yl]-2-oxa-6-azaspiro[3.3]heptane-6-carboxamide]	
		430		3				Cc1cc(-c2sc(NC(=O)N3CCC4(CC3)CNC4=O)nc2-c2cccc(C#N)c2)c(F)c(C)n1 [Example 6.69, N-[4-(3-Cyanophenyl)-5-(3-fluoro-2,6-dimethyl-4-pyridyl)thiazol-2-yl]-3-oxo-2,7-diazaspiro[3.5]nonane-7-carboxamide]	10.9
0.23	250	50		13	1.1	17		Cc1cc(-c2sc(NC(=O)N3CC4(COC4)C3)nc2-c2cccc(C#N)c2)cc(C(F)F)n1 [Example 6.97, N-[4-(3-Cyanophenyl)-5-[2-(difluoromethyl)-6-methyl-4-pyridyl]thiazol-2-yl]-2-oxa-6-azaspiro[3.3]heptane-6-carboxamide]	
0.16	930			73	3.1	6		Cc1cc(-c2sc(NC(=O)N3CCC(C)(C#N)CC3)nc2-c2cccc(C#N)c2)cc(C(C)(C)O)n1 [Example 12, 4-Cyano-N-[4-(3-cyanophenyl)-5-[2-(1-hydroxy-1-methyl-ethyl)-6-methyl-4-pyridyl]thiazol-2-yl]-4-methyl-piperidine-1-carboxamide]	
0.13	1710			36	3.3	12		Cc1cc(-c2sc(NC(=O)N3CC4(COC4)C3)nc2-c2cccc(C#N)c2)cc(C2COC2)n1 [Example 16.4]	
0.1	350			18	0.8	9		CCc1cc(-c2sc(NC(=O)N3CC4(COC4)C3)nc2-c2cccc(C#N)c2)cc(C)n1 [Example 16.9]	
0.21	1560	20		19	3.9	29		COCc1cc(-c2sc(NC(=O)N3CC4(COC4)C3)nc2-c2cccc(C#N)c2)cc(C)n1 [Example 21, N-[4-(3-Cyanophenyl)-5-[2-(methoxymethyl)-6-methyl-4-pyridyl]thiazol-2-yl]-2-oxa-6-azaspiro[3.3]heptane-6-carboxamide]	
0.24	456	50		17	1.2	38		N#Cc1cccc(-c2nc(NC(=O)N3CC4(COC4)C3)sc2-c2cc(CO)nc(C(F)(F)F)c2)c1 [Example 26, N-[4-(3-Cyanophenyl)-5-[2-(hydroxymethyl)-6-(trifluoromethyl)-4-pyridyl]thiazol-2-yl]-2-oxa-6-azaspiro[3.3]heptane-6-carboxamide]	
